Holding throughout (type): cell-based
Assay [1] addresses T1, mouse SMO^D473H (Mus musculus, UniProt P56726, D477H).
T1 construct: expressed in transfected cells
In words: Mouse assay: Gli1 qPCR in MEF cells stably expressing mouse SMO D473H. The following applies: mSHh-treated, 24 hours; for IC50: Gli1 inhibition by qPCR, read-out: Mouse D473H pIC50 (converted); for Mouse D473H % Inh: percentage Gli1 inhibition. How it is done:
(§1) Cell culture. All materials were purchased from Sigma-Aldrich, unless otherwise stated.
(§2) Compound treatment. […] After 1 hour incubation, cells were treated with assay medium containing mSHh prepared at 2.5× of final assay concentrations specified in the text and incubated for a further 24 hours at 37′C in a humidified 95% air/5% CO2 atmosphere prior to qPCR analysis.
(§3) Cell lysis and one-step qPCR. The Cells-to-CT™ 1-Step TaqMan® Kit was used in conjunction with TaqMan primer-probe assays for the detection of Gli1 (FAM, Mm00494654_m1) and Gusb (VIC, Mm01197698_m1) genes (all purchased from Life Technologies). Following 24 hours cell treatment, spent medium was removed and cells were washed with PBS before the application of lysis and stop solution as per manufacturer's instructions. The qPCR reactions were run in a 384-well PCR plate using master mix prepared according to manufacturer's instructions and cell lysate samples from treatment wells. Real-time PCR amplification was detected using the Bio-Rad CFX384 Touch PCR system. Four experimental replicates (two cell replicates and two qPCR replicates) were performed for each compound concentration tested. Real-time data were analysed using the CFX Maestro software (Bio-Rad) and obtained expression values were converted to percentage Gli1 inhibition by normalising to the average Gli1 expression of mSHh-treated control samples.
On the technique in general: Quantitative PCR measures a nucleic acid by following its amplification.

Assay [2] has as its target T2, mouse SMO^W535L (Mus musculus, UniProt P56726, W539L).
T2 construct: expressed in transfected cells
In words: Mouse assay: Gli1 qPCR in MEF cells stably expressing mouse SMO W535L. The following applies: mSHh-treated, 24 hours; for IC50: Gli1 inhibition by qPCR, read-out: Mouse W535L pIC50 (converted); for Mouse W535L % Inh: percentage Gli1 inhibition. How it is done: as §1, §2, §3

Assay [3] addresses T3, mouse SMO^WT (Mus musculus, UniProt P56726).
T3 construct: expressed in transfected cells
In words: Mouse assay: Gli1 qPCR in MEF cells stably expressing mouse SMO WT. The following applies: mSHh-treated, 24 hours; for IC50: Gli1 inhibition by qPCR, read-out: Mouse WT pIC50 (converted); for Mouse WT % Inh: percentage Gli1 inhibition. How it is done:
as §1, §2, §3

T3 sequence (P56726 33-793): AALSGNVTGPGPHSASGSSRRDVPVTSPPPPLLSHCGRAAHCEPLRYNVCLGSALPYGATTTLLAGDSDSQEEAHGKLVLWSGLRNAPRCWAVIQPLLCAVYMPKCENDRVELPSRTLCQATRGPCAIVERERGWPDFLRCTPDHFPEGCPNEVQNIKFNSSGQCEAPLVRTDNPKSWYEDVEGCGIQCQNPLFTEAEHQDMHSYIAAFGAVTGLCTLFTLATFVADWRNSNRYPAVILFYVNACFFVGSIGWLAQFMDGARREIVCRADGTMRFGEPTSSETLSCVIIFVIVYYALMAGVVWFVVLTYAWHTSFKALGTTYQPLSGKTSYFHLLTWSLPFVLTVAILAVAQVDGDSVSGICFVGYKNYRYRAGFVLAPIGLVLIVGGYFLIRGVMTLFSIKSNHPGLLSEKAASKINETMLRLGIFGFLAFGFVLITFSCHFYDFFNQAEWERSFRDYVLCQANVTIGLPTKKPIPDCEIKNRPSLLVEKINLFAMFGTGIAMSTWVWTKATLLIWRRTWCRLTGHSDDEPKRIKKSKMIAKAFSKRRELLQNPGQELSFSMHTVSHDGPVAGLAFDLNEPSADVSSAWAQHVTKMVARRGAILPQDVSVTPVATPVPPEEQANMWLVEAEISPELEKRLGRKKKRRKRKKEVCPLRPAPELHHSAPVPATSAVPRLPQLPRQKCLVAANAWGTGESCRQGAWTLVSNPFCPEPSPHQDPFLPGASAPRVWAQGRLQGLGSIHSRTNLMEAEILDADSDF
T2 sequence (P56726 33-793 W539L): as the sequence (P56726 33-793) above, with W507L counted along it
T1 sequence (P56726 33-793 D477H): as the sequence (P56726 33-793) above, with D445H counted along it

Regarding `O=C(Nc1ccc(-c2nc(Cc3cc4c(cc3Cl)OCO4)n[nH]2)cc1)c1cccc(CN2CCS(=O)(=O)CC2)c1` [Example 3-29, N-[4-[3-[(6-Chloro-1,3-benzodioxol-5-yl)methyl]-1H-1,2,4-triazol-5-yl]phenyl]-3-[(1,1-dioxo-1,4-thiazinan-4-yl)methyl]benzamide], in assay [1], the IC50 was 251 nM and the “Mouse D473H % Inh” value amounted to 98.9%. In addition, in assay [2], the IC50 is 126 nM and the “Mouse W535L % Inh” value worked out at 64.8%. Further, in assay [3], the IC50 was 25.1 nM and the “Mouse WT % Inh” value is recorded as 99.1%.
As for `COc1ccc(Cc2n[nH]c(-c3ccc(NC(=O)c4cccc(CN5CCS(=O)(=O)CC5)c4)cc3)n2)cn1` [Example 3-30, 3-[(1,1-Dioxo-1,4-thiazinan-4-yl)methyl]-N-[4-[5-[(6-methoxypyridin-3-yl)methyl]-1H-1,2,4-triazol-3-yl]phenyl]benzamide], in assay [1], the IC50 is 631 nM and the “Mouse D473H % Inh” value was 98.4%. Also, in assay [2], the IC50 is 501 nM and the “Mouse W535L % Inh” value turned out to be 69.1%. For the same compound, in assay [3], the IC50 is 79.4 nM and the “Mouse WT % Inh” value was found to be 99.0%.
`O=C(Nc1ccc(-c2nc(CCc3ccccc3)n[nH]2)cc1)c1cccc(CN2CCS(=O)(=O)CC2)c1` [Example 3-31, 3-[(1,1-Dioxo-1,4-thiazinan-4-yl)methyl]-N-[4-[3-(2-phenylethyl)-1H-1,2,4-triazol-5-yl]phenyl]benzamide]: in assay [1], the IC50 is 251 nM and the “Mouse D473H % Inh” value amounted to 97.2%. In assay [2], the IC50 is 79.4 nM and the “Mouse W535L % Inh” value stood at 64.1%. In assay [3], the IC50 was 31.6 nM and the “Mouse WT % Inh” value came out at 98.6%.
Take `Cc1nc(-c2ccc(NC(=O)c3cccc(CN4CCS(=O)(=O)CC4)c3)cc2)oc1C` [Example 4-1, N-[4-(4,5-Dimethyl-1,3-oxazol-2-yl)phenyl]-3-[(1,1-dioxo-1,4-thiazinan-4-yl)methyl]benzamide]: in assay [1], the IC50 was 50.1 nM and the “Mouse D473H % Inh” value was determined as 98.6%. Moreover, in assay [2], the IC50 is 63.1 nM and the “Mouse W535L % Inh” value is on record as 78.6%. Further, in assay [3], the IC50 is 6.31 nM and the “Mouse WT % Inh” value is on record as 99.2%.
`Cc1oc(-c2ccc(NC(=O)c3ccc(Cl)c(CN4CCS(=O)(=O)CC4)c3)cc2)nc1C1CC1` [Example 4-4, 4-Chloro-N-[4-(4-cyclopropyl-5-methyl-1,3-oxazol-2-yl)phenyl]-3-[(1,1-dioxo-1,4-thiazinan-4-yl)methyl]benzamide]: in assay [1], the IC50 was 3.16 nM and the “Mouse D473H % Inh” value is on record as 98.5%. For the same compound, in assay [2], the IC50 is 12.6 nM and the “Mouse W535L % Inh” value was 79.0%. Further, in assay [3], the IC50 is 0.2 nM and the “Mouse WT % Inh” value is on record as 99.5%.
With `O=C(Nc1ccc(-c2cnc(C3CC3)o2)cc1)c1cccc(CN2CCS(=O)(=O)CC2)c1` [Example 4-5, N-[4-(2-Cyclopropyl-1,3-oxazol-5-yl)phenyl]-3-[(1,1-dioxo-1,4-thiazinan-4-yl)methyl]benzamide], in assay [1], the IC50 was 100 nM and the “Mouse D473H % Inh” value is 99.7%. Also, in assay [2], the IC50 was 158 nM and the “Mouse W535L % Inh” value came out at 63.2%. In assay [3], the IC50 is 7.94 nM and the “Mouse WT % Inh” value stood at 99.9%.
For `O=C(Nc1ccc(-c2cc(C3CC3)no2)cc1)c1cccc(CN2CCS(=O)(=O)CC2)c1` [Example 4-6], in assay [1], the IC50 was 79.4 nM and the “Mouse D473H % Inh” value is 99.3%. Besides, in assay [2], the IC50 was 126 nM and the “Mouse W535L % Inh” value came to 76.9%. Moreover, in assay [3], the IC50 was 12.6 nM and the “Mouse WT % Inh” value is 99.0%.
As for `O=C(Nc1ccc(-c2cc(C3CC3)on2)cc1)c1cccc(CN2CCS(=O)(=O)CC2)c1` [Example 4-7, N-[4-(5-Cyclopropyl-1,2-oxazol-3-yl)phenyl]-3-[(1,1-dioxo-1,4-thiazinan-4-yl)methyl]benzamide], in assay [1], the IC50 is 20 nM and the “Mouse D473H % Inh” value is on record as 99.3%. For the same compound, in assay [2], the IC50 is 31.6 nM and the “Mouse W535L % Inh” value stood at 76.0%. Further, in assay [3], the IC50 was 2.51 nM and the “Mouse WT % Inh” value is reported as 98.8%.
Take `Cl.O=C(Nc1ccc(-c2nnc(C3CC3)o2)cc1)c1cccc(CN2CCS(=O)(=O)CC2)c1` [Example 4-8, N-[4-(5-Cyclopropyl-1,3,4-oxadiazol-2-yl)phenyl]-3-[(1,1-dioxo-1,4-thiazinan-4-yl)methyl]benzamide]: in assay [1], the IC50 is 794 nM and the “Mouse D473H % Inh” value is 94.9%. For the same compound, in assay [2], the IC50 was 501 nM and the “Mouse W535L % Inh” value was determined as 65.9%. In assay [3], the IC50 is 79.4 nM and the “Mouse WT % Inh” value is 98.9%.
Take `CN(C)c1nnc(-c2ccc(NC(=O)c3cccc(CN4CCS(=O)(=O)CC4)c3)cc2)o1` [Example 4-9, N-[4-[5-(Dimethylamino)-1,3,4-oxadiazol-2-yl]phenyl]-3-[(1,1-dioxo-1,4-thiazinan-4-yl)methyl]benzamide]: in assay [1], the IC50 was 316 nM and the “Mouse D473H % Inh” value is recorded as 99.1%. Further, in assay [2], the IC50 was 794 nM and the “Mouse W535L % Inh” value was determined as 70.0%. In assay [3], the IC50 is 39.8 nM and the “Mouse WT % Inh” value is 99.6%.
Regarding `Cl.O=C(Nc1ccc(-c2nc(C3CC3)no2)cc1)c1cccc(CN2CCS(=O)(=O)CC2)c1` [Example 4-11, N-[4-(3-Cyclopropyl-1,2,4-oxadiazol-5-yl)phenyl]-3-[(1,1-dioxo-1,4-thiazinan-4-yl)methyl]benzamide], in assay [1], the IC50 was 158 nM and the “Mouse D473H % Inh” value amounted to 99.5%. In addition, in assay [2], the IC50 was 158 nM and the “Mouse W535L % Inh” value is given as 63.8%. In assay [3], the IC50 was 50.1 nM and the “Mouse WT % Inh” value is 99.7%.
As to `Cl.O=C(Nc1ccc(-c2noc(C3CC3)n2)cc1)c1cccc(CN2CCS(=O)(=O)CC2)c1` [Example 4-12, N-[4-(5-Cyclopropyl-1,2,4-oxadiazol-3-yl)phenyl]-3-[(1,1-dioxo-1,4-thiazinan-4-yl)methyl]benzamide], in assay [1], the IC50 was 39.8 nM and the “Mouse D473H % Inh” value is reported as 99.8%. Moreover, in assay [2], the IC50 is 158 nM and the “Mouse W535L % Inh” value is given as 57.8%. In addition, in assay [3], the IC50 was 10 nM and the “Mouse WT % Inh” value is reported as 99.6%.
In the case of `O=C(Nc1ccc(-c2noc(C3CCC3)n2)cc1)c1cccc(CN2CCS(=O)(=O)CC2)c1` [Example 4-13, N-[4-(5-Cyclobutyl-1,2,4-oxadiazol-3-yl)phenyl]-3-[(1,1-dioxo-1,4-thiazinan-4-yl)methyl]benzamide], in assay [1], the IC50 was 316 nM and the “Mouse D473H % Inh” value was 99.0%. In addition, in assay [2], the IC50 was 501 nM and the “Mouse W535L % Inh” value is reported as 77.4%. Besides, in assay [3], the IC50 is 50.1 nM and the “Mouse WT % Inh” value was determined as 98.8%.
In the case of `O=C(Nc1ccc(-c2noc(C3CCCC3)n2)cc1)c1cccc(CN2CCS(=O)(=O)CC2)c1` [Example 4-14, N-[4-(5-Cyclopentyl-1,2,4-oxadiazol-3-yl)phenyl]-3-[(1,1-dioxo-1,4-thiazinan-4-yl)methyl]benzamide], in assay [1], the IC50 was 200 nM and the “Mouse D473H % Inh” value was found to be 99.1%. In assay [2], the IC50 is 794 nM and the “Mouse W535L % Inh” value is listed as 74.2%. Moreover, in assay [3], the IC50 was 10 nM and the “Mouse WT % Inh” value was 98.2%.

Values taken from patent publication US20250136559A1, “SMO MODULATOR COMPOUNDS” (OMASS THERAPEUTICS LIMITED, priority 2022, published 2025).
